Data: patent US20240294511A1, “SOLID FORM OF INDOLE COMPOUND, PREPARATION METHOD THEREFOR AND USE THEREOF” (KEYTHERA (SUZHOU) BIO-PHARMACEUTICALS CO., LIMITED, priority 2021, published 2024)

Legend:
[1] = Crystalline form transformation test (heating); format: physicochemical; conditions: slowly heated to 200° C., then cooled to room temperature
Description: (§1) The solid samples obtained in the examples were analyzed for crystalline form using a PANalytical EMPYREAN equipped with a PIXceI^1D detector. The instrument parameters are as follows: scanning range: 3° (2θ) to 40° (2θ); step size: 0.013° (2θ); tube voltage and current are 45 KV and 40 mA, respectively.
Crystalline form IV was slowly heated to 200° C. and then cooled to room temperature. Samples before and after heating were collected for XRPD testing.

[2] = Pharmacokinetic test in SD rats; format: in vivo; conditions: rat, blood
Description: (§2) A clear solution of crystalline form II of the compound of Formula (1) was prepared in 10% DMSO, 60% PEG 400, and 30% water for injection and administered intravenously to SD rats. An aqueous suspension of crystalline form II of the compound of Formula (1) in 0.5% sodium carboxymethylcellulose (CMC·Na) was prepared and administered orally to SD rats to investigate its pharmacokinetic characteristics.

[3] = Pharmacokinetic test in beagle dogs; format: in vivo; conditions: dog, blood
Description: as §2, with “beagle dogs.” for “SD rats.”, “beagle dogs” for “SD rats”

Mechanical grinding test = format: physicochemical; conditions: 0.5 g ground in a mortar for about 5 minutes
Description: as §1
0.5 g of crystalline form II was placed in a mortar and ground for about 5 minutes, then the solid was collected for XRPD testing.

Solid stability test = format: physicochemical; conditions: for Purity - Day 7: 7 days
Description: as §1
The HPLC measurements were performed using an Agilent HPLC 1260 series instrument.
Crystalline form II was stored separately at a sealed condition at 60° C. and at 40° C./75% RH for 7 days. The purity of the samples was determined by HPLC before and after storage, and the XRPD patterns were measured.

Light exposure test = format: physicochemical
Description: Crystalline form II of the compound of Formula (1) was placed under conditions of light intensity not less than 1.2×10^6 Lux·hr, with near-ultraviolet energy not less than 200 w·hr/m^2, at 25° C., RH 25% for 30 days. Samples were taken at 0, 5, 10, and 30 days, respectively, to observe changes in sample characteristics, test for drying loss, measure the total impurity content by HPLC, and measure the XRPD patterns of the samples.

High temperature test = format: physicochemical; conditions: 60° C.
Description: (§3) Crystalline form II of the compound of Formula (1) was placed at a high temperature of 60° C. for 30 days. Samples were taken at 0, 5, 10, and 30 days, respectively, to observe changes in sample characteristics, measure specific rotation with a polarimeter, test for drying loss, measure the total impurity content by HPLC, and measure the XRPD patterns of the samples.

High humidity test = format: physicochemical
Description: as §3, with “at 25° C. and 92.5%” for “at a”, “high humidity” for “high temperature of 60° C.”, “characteristics,” for “characteristics, measure specific rotation with a polarimeter,”

O=C(NC1(C23CC(C(=O)O)(C2)C3)CC1)c1cccc2ccn(Cc3cc4ccccc4o3)c12 [Crystalline form IV, 3-(1-(1-(benzofuran-2-ylmethyl)-1H-indole-7-carboxamido)cyclopropyl)bicyclo[1.1.1]pentane-1-carboxylic acid]
crystalline form after heating (XRPD) [1]: transformed into crystalline form II

O=C(NC1(C23CC(C(=O)O)(C2)C3)CC1)c1cccc2ccn(Cc3cc4ccccc4o3)c12 [compound of Formula (1), 3-(1-(1-(benzofuran-2-ylmethyl)-1H-indole-7-carboxamido)cyclopropyl)bicyclo[1.1.1]pentane-1-carboxylic acid]
clearance ([2]; single intravenous 15 mg/kg, read-out: clearance (CL)): 3.59 mL/min/kg | Vd ([2]; single intravenous 15 mg/kg, read-out: steady-state apparent volume of distribution (Vss)): 1.18 L/kg | AUC(0-t) ([2]; single intravenous 15 mg/kg, solution of crystalline form II in 10% DMSO, 60% PEG 400, 30% water, read-out: drug exposure (AUC0-t)): 78.8 µg·h/mL | AUC(0-t) ([2]; single oral 40 mg/kg, suspension of crystalline form II in 0.5% CMC·Na, read-out: exposure (AUC0-t)): 153 µg·h/mL | Cmax ([2]; single oral 40 mg/kg, suspension of crystalline form II in 0.5% CMC·Na, read-out: maximum blood drug concentration (Cmax)): 27700 ng/mL | clearance ([3]; single intravenous 5 mg/kg, read-out: clearance (CL)): 6.64 mL/min/kg | Vd ([3]; single intravenous 5 mg/kg, read-out: steady-state apparent volume of distribution (Vss)): 1.5 L/kg | AUC(0-t) ([3]; single intravenous 5 mg/kg, solution of crystalline form II in 10% DMSO, 60% PEG 400, 30% water, read-out: drug exposure (AUC0-t)): 12600 ng·h/mL | AUC(0-t) ([3]; single oral 45 mg/kg, suspension of crystalline form II in 0.5% CMC·Na, read-out: exposure (AUC0-t)): 79600 ng·h/mL | Cmax ([3]; single oral 45 mg/kg, suspension of crystalline form II in 0.5% CMC·Na, read-out: maximum blood drug concentration (Cmax)): 32900 ng/mL

O=C(NC1(C23CC(C(=O)O)(C2)C3)CC1)c1cccc2ccn(Cc3cc4ccccc4o3)c12 [Crystalline form II, 3-(1-(1-(benzofuran-2-ylmethyl)-1H-indole-7-carboxamido)cyclopropyl)bicyclo[1.1.1]pentane-1-carboxylic acid]
crystalline form after grinding (XRPD) (Mechanical grinding test): remained unchanged | Purity - Day 7 (Solid stability test; HPLC, 40° C./75% RH): 99.4 Area % | Purity at the beginning (Solid stability test; HPLC, before storage): 99.4 Area % | Purity - Day 7 (Solid stability test; HPLC, sealed condition at 60° C.): 99.6 Area % | crystalline form after storage (XRPD) (Solid stability test; sealed at 60° C. and at 40° C./75% RH for 7 days): remained unchanged | crystalline form (XRPD) (Light exposure test; light exposure, 30 days): did not change | new impurities formed (Light exposure test; light exposure, 30 days, HPLC): ≤ 0.05% | changes in moisture and content compared to day 0 (Light exposure test; light not less than 1.2×10^6 Lux·hr, near-UV not less than 200 w·hr/m^2, 25° C., RH 25%, 30 days): no significant changes | stability under light exposure conditions (Light exposure test; total illumination not less than 1.2×10^6 Lux·hr, near-UV not less than 200 w·hr/m^2): stable | stability under high-temperature conditions (High temperature test): stable | differences in appearance, moisture, content and crystalline form compared to day 0 (High temperature test; 30 days): no significant differences | new impurities formed (High temperature test; 30 days, HPLC): ≤ 0.05% | differences in appearance, moisture, content and crystalline form compared to day 0 (High humidity test; 25° C., 92.5% RH, 30 days): no significant differences | water absorption (High humidity test; 25° C., 92.5% RH, 30 days): 0.03% | new impurities formed (High humidity test; 25° C., 92.5% RH, 30 days, HPLC): ≤ 0.05% | stability under high humidity conditions (High humidity test; RH 92.5%): stable
